Source: patent US8288555B2, “Alkene derivatives as sphingosine 1-phosphate (S1P) receptor modulators” (Allergan, Inc., priority 2010, dated 2012)

molecular target: T1, human S1P4 receptor (Homo sapiens, UniProt O95977); assay: GTP γ35S binding assay for S1P4 activity; type: biochemical; conditions: activity potency at the S1P4 receptor from GTP γ35S binding; membranes of cells stably expressing the S1P4 receptor; test compounds 0.08 to 5,000 nM
T1 construct: expressed in transfected cells; membranes used
T1 sequence (O95977 1-384): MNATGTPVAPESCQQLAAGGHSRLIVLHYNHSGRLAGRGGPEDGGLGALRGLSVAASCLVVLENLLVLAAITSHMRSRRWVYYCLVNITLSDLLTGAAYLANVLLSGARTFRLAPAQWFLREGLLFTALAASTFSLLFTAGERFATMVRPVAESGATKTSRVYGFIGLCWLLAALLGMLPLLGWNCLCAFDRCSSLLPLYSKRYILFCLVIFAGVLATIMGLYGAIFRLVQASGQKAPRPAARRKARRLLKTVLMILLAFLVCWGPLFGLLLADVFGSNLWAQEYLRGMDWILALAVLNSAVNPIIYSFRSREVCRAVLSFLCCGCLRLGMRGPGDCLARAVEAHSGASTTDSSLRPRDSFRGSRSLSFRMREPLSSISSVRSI
Description: Compounds were synthesized and tested for S1P4 activity using the GTP γ^35S binding assay. These compounds may be assessed for their ability to activate or block activation of the human S1P4 receptor in cells stably expressing the S1P4 receptor.
GTP γ^35S binding was measured in the medium containing (mM) HEPES 25, pH 7.4, MgCl2 10, NaCl 100, dithitothreitol 0.5, digitonin 0.003%, 0.2 nM GTP γ^35S, and 5 μg membrane protein in a volume of 150 μl. Test compounds were included in the concentration range from 0.08 to 5,000 nM unless indicated otherwise. Membranes were incubated with 100 μM 5′-adenylylimmidodiphosphate for 30 min, and subsequently with 10 μM GDP for 10 min on ice. Drug solutions and membrane were mixed, and then reactions were initiated by adding GTP γ^35S and continued for 30 min at 25° C. Reaction mixtures were filtered over Whatman GF/B filters under vacuum, and washed three times with 3 mL of ice-cold buffer (HEPES 25, pH7.4, MgCl2 10 and NaCl 100). Filters were dried and mixed with scintillant, and counted for ^35S activity using a β-counter. Agonist-induced GTP γ^35S binding was obtained by subtracting that in the absence of agonist. Binding data were analyzed using a non-linear regression method. In case of antagonist assay, the reaction mixture contained 10 nM S1P in the presence of test antagonist at concentrations ranging from 0.08 to 5000 nM.

EC50 [nM]	Compound
140	CNc1ncccc1-c1noc(/C(=C/c2ccc(C)c(C)c2)c2cccs2)n1 [3-{5-[(Z)-2-(3,4-dimethylphenyl)-1-(2-thienyl)vinyl]-1,2,4-oxadiazol-3-yl}-N-methylpyridin-2-amine]
375	CNc1ncccc1-c1noc(/C(=C/c2ccc(C)c(C)c2)c2cccc(F)c2)n1 [Compound 5, 3-{5-[(E)-2-(3,4-Dimethylphenyl)-1-(3-fluorophenyl)vinyl]-1,2,4-oxadiazol-3-yl}-N-methylpyridin-2-amine]
2020	CNc1ncccc1-c1noc(/C(=C/c2ccc(C)c(C)c2)c2cccc(C)c2)n1 [Compound 6, 3-{5-[(E)-2-(3,4-Dimethylphenyl)-1-(3-methylphenyl)vinyl]-1,2,4-oxadiazol-3-yl}-N-methylpyridin-2-amine]
79.3	CNc1ncccc1-c1noc(/C(=C/c2ccc(C)c(C)c2)c2cccc(Cl)c2)n1 [Compound 7, 3-{5-[(E)-1-(3-Chlorophenyl)-2-(3,4-dimethylphenyl)vinyl]-1,2,4-oxadiazol-3-yl}-N-methylpyridin-2-amine]
665	CNc1ncccc1-c1noc(/C(=C/c2ccc(C)c(C)c2)c2ccsc2)n1 [Compound 8, 3-{5-[(E)-2-(3,4-Dimethylphenyl)-1-(3-thienyl)vinyl]-1,2,4-oxadiazol-3-yl}-N-methylpyridin-2-amine]
635	CNc1ncccc1-c1noc(/C(=C/c2ccc(C)cc2)c2cccs2)n1 [Compound 10, N-Methyl-3-{5-[(Z)-2-(4-methylphenyl)-1-(2-thienyl)vinyl]-1,2,4-oxadiazol-3-yl}pyridin-2-amine]
550	CNc1ncccc1-c1noc(/C(=C/c2ccc(C)c(C)c2)c2cc(F)cc(F)c2)n1 [Compound 14, 3-{5-[(E)-1-(3,5-Difluorophenyl)-2-(3,4-dimethylphenyl)vinyl]-1,2,4-oxadiazol-3-yl}-N-methylpyridin-2-amine]
1780	CNc1ncccc1-c1noc(/C(=C/c2ccc(C)c(C)c2)c2cccc(OC)c2)n1 [Compound 15, 3-{5-[(E)-2-(3,4-Dimethylphenyl)-1-(3-methoxyphenyl)vinyl]-1,2,4-oxadiazol-3-yl}-N-methylpyridin-2-amine]
501	CNc1ncccc1-c1noc(/C(=C/c2ccc(C)c(C)c2)c2ccccc2OC)n1 [Compound 16, 3-{5-[(E)-2-(3,4-Dimethylphenyl)-1-(2-methoxyphenyl)vinyl]-1,2,4-oxadiazol-3-yl}-N-methylpyridin-2-amine]
2000	CNc1ncccc1-c1noc(/C(=C/c2ccccc2C)c2cccc(Cl)c2)n1 [Compound 20, 3-{5-[(E)-1-(3-Chlorophenyl)-2-(2-methylphenyl)vinyl]-1,2,4-oxadiazol-3-yl}-N-methylpyridin-2-amine]
